Reference: patent US9499553B2 (CHUGAI SEIYAKU KABUSHIKI KAISHA, priority 2013, dated 2016)

Legend:
human NaPi-IIb = target: T1, human NaPi-IIb (Homo sapiens, UniProt O95436); experiment: Inhibitory effect on 33PO4 uptake into human NaPi-IIb-expressing CHO cells; format: cell-based; settings: read-out: IC50
T1 construct: expressed in transfected cells
T1 sequence (O95436 1-690): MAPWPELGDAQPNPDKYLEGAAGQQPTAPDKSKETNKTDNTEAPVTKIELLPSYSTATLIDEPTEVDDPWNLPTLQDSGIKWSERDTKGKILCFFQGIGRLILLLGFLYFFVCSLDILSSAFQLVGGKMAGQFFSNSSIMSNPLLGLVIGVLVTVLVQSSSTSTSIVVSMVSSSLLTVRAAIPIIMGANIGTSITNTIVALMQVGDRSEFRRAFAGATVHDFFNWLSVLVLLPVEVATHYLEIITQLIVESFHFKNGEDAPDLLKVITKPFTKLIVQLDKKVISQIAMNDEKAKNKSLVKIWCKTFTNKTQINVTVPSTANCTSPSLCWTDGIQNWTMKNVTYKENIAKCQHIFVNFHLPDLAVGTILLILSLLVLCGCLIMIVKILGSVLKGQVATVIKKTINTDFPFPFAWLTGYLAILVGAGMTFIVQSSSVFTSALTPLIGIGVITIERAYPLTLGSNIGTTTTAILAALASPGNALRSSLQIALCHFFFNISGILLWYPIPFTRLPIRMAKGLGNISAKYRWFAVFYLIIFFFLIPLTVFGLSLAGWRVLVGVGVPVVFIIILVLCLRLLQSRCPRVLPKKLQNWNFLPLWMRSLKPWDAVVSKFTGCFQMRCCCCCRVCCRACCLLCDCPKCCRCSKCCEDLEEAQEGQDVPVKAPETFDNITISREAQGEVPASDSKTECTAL
Procedure, shortened: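 Stable human NaPi-IIb CHO line (G418-selected), plated and cultured overnight; ³³PO4 added in buffer A and uptake run at room temperature. Cells washed with ice-cold buffer A, then uptake counted by liquid scintillation.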

human PiT-2 = target: T2, human PiT-2 (Homo sapiens, UniProt Q08357); experiment: Inhibitory effect on 33PO4 uptake into human PiT-2-expressing CHO cells; format: cell-based; settings: pH 6.5, read-out: IC50 against 33PO4 uptake into human PiT-2-expressing cells
T2 construct: expressed in transfected cells; host or cells: CHO cells
T2 sequence (Q08357 1-652): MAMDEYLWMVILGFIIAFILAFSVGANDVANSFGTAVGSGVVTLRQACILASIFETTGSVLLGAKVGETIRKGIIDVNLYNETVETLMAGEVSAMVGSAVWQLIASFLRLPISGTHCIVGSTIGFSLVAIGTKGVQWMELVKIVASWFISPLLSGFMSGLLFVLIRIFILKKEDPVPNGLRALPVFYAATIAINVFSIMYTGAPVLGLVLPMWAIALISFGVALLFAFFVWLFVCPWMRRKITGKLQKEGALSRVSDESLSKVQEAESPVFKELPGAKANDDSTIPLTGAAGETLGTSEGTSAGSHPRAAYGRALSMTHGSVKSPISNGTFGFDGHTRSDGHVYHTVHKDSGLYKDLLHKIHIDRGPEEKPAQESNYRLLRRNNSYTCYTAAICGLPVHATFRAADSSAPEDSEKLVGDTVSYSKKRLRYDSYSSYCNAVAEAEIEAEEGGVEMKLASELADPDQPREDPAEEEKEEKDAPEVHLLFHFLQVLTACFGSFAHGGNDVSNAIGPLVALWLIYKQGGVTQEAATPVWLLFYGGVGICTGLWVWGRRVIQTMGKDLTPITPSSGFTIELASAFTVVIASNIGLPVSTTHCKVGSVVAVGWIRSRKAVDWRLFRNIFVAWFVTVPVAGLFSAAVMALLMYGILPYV
Description: Test Example 4: Inhibitory Effect on ^33PO4 Uptake into Human PiT-2-Expressing Cell
(§1) CHO cells were transfected with human PiT-2 expression plasmids or empty vectors to prepare human PiT-2-expressing cells and empty vector-expressing cells. The human PiT-2-expressing cells or the empty vector-expressing cells were inoculated to a 96-well plate and incubated overnight in a CO2 incubator. […] After a given time, a 1/20 volume of buffer A containing ^33PO4 was added thereto and reacted at room temperature. After washing with ice-cold buffer A, a liquid scintillator was added to each reaction mixture, and the amount of ^33PO4 uptake was measured using TopCount. The rate of inhibition was determined according to the following expression: Rate (%) of inhibition=(1−(Amount of ^33PO4 uptake in the compound-supplemented well containing the human PiT-2-expressing cells−Amount of ^33PO4 uptake in the compound-supplemented well containing the empty vector-expressing cells)/(Amount of ^33PO4 uptake in the DMSO-supplemented well containing the human PiT-2-expressing cells −Amount of ^33PO4 uptake in the DMSO-supplemented well containing the empty vector-expressing cells))×100

[1] = system: adenine-induced renal failure rat; experiment: Suppressive effect on rise in serum phosphorus concentration of adenine-induced renal failure rat (0.1% in feed, 3 days); format: in vivo; settings: feed or water, 72 h, 0.1% of mass concentration in feed, read-out: Rate of inhibition (%) (suppression of a rise in serum phosphorus concentration)
Source text: Test Example 5: Suppressive Effect on Rise in Serum Phosphorus Concentration of Adenine-Induced Renal Failure Rat
Adenine was forcedly administered orally to each Wistar male rat (7-8 weeks old) to impair renal functions and thereby prepare a hyperphosphatemia model (Katsumata K, Kusano K, Hirata M, Tsunemi K, Nagano N, Burke S K, Fukushima N. Sevelamer hydrochloride prevents ectopic calcification and renal osteodystrophy in chronic renal failure rats. Kidney Int. 2003 August; 64 (2): 441-50). Each test compound was mixed at a ratio of 0.1% of mass concentration with feed. The animal was fed with a given amount of the feed for 3 days. A group given feed non-supplemented with a test compound was used as a reference pathological group, and an adenine-unadministered group given feed non-supplemented with a test compound was used as a normal group. […] Serum phosphorus concentrations were measured by the Fiske-Subbarow method. The rate of suppression of a rise in serum phosphorus concentration was determined according to the following expression: Rate (%) of suppression of a rise in serum phosphorus concentration=(1−[(Serum phosphorus concentration of the test compound-treated pathological group)−(Serum phosphorus concentration of the normal group)]/[(Serum phosphorus concentration of the reference pathological group)−(Serum phosphorus concentration of the normal group)])×100

human PiT-1 = target: T3, human PiT-1 (Homo sapiens, UniProt Q8WUM9); experiment: Inhibitory effect on 33PO4 uptake into human PiT-1-expressing CHO cells; format: cell-based; settings: compound 0.24, 1.2, 6 or 30 μM, pH 6.5, read-out: IC50 against 33PO4 uptake into human PiT-1-expressing cells
T3 construct: expressed in transfected cells; host or cells: CHO cells
T3 sequence (Q8WUM9 1-679): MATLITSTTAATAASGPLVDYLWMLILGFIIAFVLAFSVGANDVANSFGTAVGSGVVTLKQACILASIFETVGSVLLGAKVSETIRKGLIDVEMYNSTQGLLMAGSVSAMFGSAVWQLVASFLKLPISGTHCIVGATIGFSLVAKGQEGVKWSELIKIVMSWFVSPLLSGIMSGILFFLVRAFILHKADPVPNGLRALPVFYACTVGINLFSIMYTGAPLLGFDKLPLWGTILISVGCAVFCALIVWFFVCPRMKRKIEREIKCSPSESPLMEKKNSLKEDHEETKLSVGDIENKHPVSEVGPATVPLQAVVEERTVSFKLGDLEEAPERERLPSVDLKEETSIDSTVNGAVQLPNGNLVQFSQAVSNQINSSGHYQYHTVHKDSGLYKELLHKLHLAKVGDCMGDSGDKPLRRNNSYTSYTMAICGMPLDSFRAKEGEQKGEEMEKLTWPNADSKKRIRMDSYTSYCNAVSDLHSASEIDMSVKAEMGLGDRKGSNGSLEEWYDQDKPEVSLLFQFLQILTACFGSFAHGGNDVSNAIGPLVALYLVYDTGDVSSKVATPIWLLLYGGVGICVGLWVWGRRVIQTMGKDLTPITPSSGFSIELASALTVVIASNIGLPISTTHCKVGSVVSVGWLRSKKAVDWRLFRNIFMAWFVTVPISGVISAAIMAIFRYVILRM
Description: Test Example 3: Inhibitory Effect on ^33PO4 Uptake into Human PiT-1-Expressing Cell
as §1, with “PiT-1” for “PiT-2”, “PiT-1-expressing” for “PiT-2-expressing”

Row | IC50 (human NaPi-IIb) | IC50 (human PiT-2) | IC50 (human PiT-1) | SMILES | inhibition in vivo at 0.1 %, 0.1 % in feed [1]
1 | 2.8 µM | 3.6 µM | – | C[C@]12CCCN1N(Cc1cccc(F)c1F)C(=O)C(C(=O)Nc1ccc(C(F)(F)F)cc1-c1cc(C(F)(F)F)ncn1)=C2O [Example 21, (4aR)-1-[(2,3-Difluoro-phenyl)methyl]-4-hydroxy-4a-methyl-2-oxo-N-[4-(trifluoromethyl)-2-[6-(trifluoromethyl)pyrimidin-4-yl]phenyl]-6,7-dihydro-5H-pyrrolo [1,2-b]pyridazine-3-carboxamide] | 24%
2 | 16.8 µM | – | – | C[C@]12CCCN1N(Cc1ccc(OCCN3CCOCC3)c(F)c1F)C(=O)C(C(=O)Nc1ccc(C(F)(F)F)cc1-c1ccnc(C#N)c1)=C2O [Example 52, (4aR)-N-[2-(2-Cyanopyridin-4-yl)-4-(trifluoromethyl)phenyl]-1-[[2,3-difluoro-4-(2-morpholin-4-ylethoxy)phenyl]methyl]-4-hydroxy-4a-methyl-2-oxo-6,7-dihydro-5H-pyrrolo[1,2-b]pyridazine-3-carboxamide] | 20%
3 | 7.3 µM | 2.7 µM | 1.9 µM | COCCN(C)CCOc1ccc(CN2C(=O)C(C(=O)Nc3ccc(C(F)(F)F)cc3-c3cc(C(F)(F)F)ncn3)=C(O)C3(CCC3)N2C)c(F)c1F [Example 13, 6-[[2,3-Difluoro-4-[2-[2-methoxyethyl(methyl)amino]ethoxy]phenyl]methyl]-9-hydroxy-5-methyl-7-oxo-N-[4-(trifluoromethyl)-2-[6-(trifluoromethyl)pyrimidin-4-yl]phenyl]-5,6-diazaspiro[3.5]non-8-ene-8-carboxamide] | –
